US8865124B2, “Probe reagent for measuring oxidative stress” (Japan Science and Technology Agency, priority 2008, dated 2014)
Peptide text beside a SMILES is read from it. * marks the point of attachment. Cbz = O=C(OCc1ccccc1)*

Tests used:
[1] = tested on: HeLa cells expressing the probe reagent mKO2-Nrf2—100-T2A-Keap1; assay: Evaluation of a probe reagent by imaging of a cell (mKO2 fluorescence, time-lapse microscope); type: cell-based, human
Experimental: The prepared cDNA was transfected into HeLa cells that were cultured on a glass bottom dish by using FuGENE HD (manufactured by Roche Applied Science). The medium was replaced by the fresh medium 12 hours after the transfection. […] This microscope was equipped with a cooled CCD camera so that fluorescent images of a cell were able to be captured over time.
In order to verify that the constructed probe reagent responded correctly to oxidative stress as intended, diethylmaleate (DEM), which is an oxidative stress inducer, was added at a concentration of 100 μM, and the fluorescent intensity of mKO2 (ex; BP520-540HQ, em; BP555-600HQ) was measured. […] When ethanol, a solvent, was added at 0.1% as a control, the fluorescent intensity of mKO2 was not increased.
In order to verify that this probe reagent was degraded by a proteasome in a cell under conditions without being exposed to oxidative stress, an experiment using a proteasome inhibitor, MG132, was carried out. […] In contrast, after dimethylsulfoxide (DMSO), a solvent, was added at 0.1% as a control, the fluorescent intensity of mKO2 was not increased (FIG. 5).

[2] = tested on: mKO2-Nrf2 fusion molecule in HeLa cells; assay: Evaluation of a probe reagent by Western blotting using an anti-Nrf2 antibody; type: cell-based, human; settings: MG132 10 μM versus 0.1% DMSO; FIG. 6
Experimental: First, to confirm that this probe reagent was separated into an mKO2-Nrf2 fusion molecule and Keap1 by the T2A peptide in a cell, the following experiments were performed. The cDNA, which was prepared using FuGENE® HD (Roche Applied Science Inc.), was transfected into HeLa cells cultured on a 35-mm dish. The medium was replaced by the fresh medium 12 hours after the transfection. After the 12 hours, DEM was added at a concentration of 100 μM, and ethanol was added at 0.1% as a control. The cells were cultured for further 8 hours. After that, Western blotting was conducted by using an anti-Nrf2 antibody (Santa Cruz Inc.). Both in the case of adding DEM and the case of adding ethanol, the band of the mKO2-Nrf2 fusion molecule was detected, but the band of the probe reagent comprising linked Keap1 was hardly observed.
Next, the fact that this probe reagent was degraded by a proteasome in a cell was confirmed by performing Western blotting. A proteasome inhibitor, MG132, was added at a concentration of 10 μM to HeLa cells that had been cultured in a similar manner. DMSO was added at 0.1% to control cells as well.

CCOC(=O)/C=C\C(=O)OCC [DEM, diethylmaleate]
increase in the fluorescent intensity of mKO2 ([1]; DEM added at 100 μM, HeLa cells transfected with probe cDNA, control 0.1% ethanol gave no increase, FIG. 3): more than 10 times

CC(C)C[C@@H](C=O)NC(=O)[C@H](CC(C)C)NC(=O)[C@H](CC(C)C)NC(=O)OCc1ccccc1 [MG132] (Cbz-Leu-Leu-Leu-aldehyde)
fluorescent intensity of mKO2 ([1]; MG132 added at 10 μM, control 0.1% DMSO gave no increase, FIG. 5): increase in the fluorescent intensity of mKO2 was observed | band of the mKO2-Nrf2 fusion molecule (amount of probe reagent) [2]: strong band was detected compared to the case of adding DMSO

probe reagent: fusion protein: fluorescent protein mKO2, Nrf2 amino acids 1 to 100, self-cleaved peptide T2A and Keap1; encoded by SEQ ID NO: 7
fluorescence of cells expressing the probe reagent before the experiment ([1]; no oxidative stress loaded, 24 hours after medium change): only fluorescence at the background light level was detected
